Test system: P-388 lymphocytic leukemia cells
Assay: cytotoxicity, cell culture assay using P-388 lymphocytic leukemia cells, compared with taxol
Assay type: cell-based
Details: for ED50 /ED50 (taxol): P-388 leukemia, value of less than 1 = more active than taxol; for biological activity as compared with taxol (in words): P-388 cell culture assay
Source text: Acylation of 22 with various aromatic carboxylic acids in the presence of dicyclohexylcarbodiimide and 4-pyrrolidinopyridine has led to the preparation of various 2-debenzoyl-2-acyl taxols 13. […] For details of the cell culture assay, see Abbott, B. J., "Protocol 14 of Instruction 275," National Cancer Institute, National Institutes of Health, Jan. 24, 1978.

Row | SMILES | ED50 /ED50 (taxol) | biological activity as compared with taxol (in words) | antineoplastic activity relative to taxol, cell culture assay (P-388 leukemia in vitro) (fold activity versus taxol) [times]
1 | CC(=O)O[C@H]1C(=O)[C@@]2(C)[C@H]([C@H](OC(=O)c3cccc(N)c3)[C@]3(O)C[C@H](OC(=O)[C@H](O)[C@@H](NC(=O)c4ccccc4)c4ccccc4)C(C)=C1C3(C)C)[C@]1(OC(C)=O)CO[C@@H]1C[C@@H]2O [Compound 13a] | 1500 | – | –
2 | CC(=O)O[C@H]1C(=O)[C@@]2(C)[C@H]([C@H](OC(=O)c3ccc(C#N)cc3)[C@]3(O)C[C@H](OC(=O)[C@H](O)[C@@H](NC(=O)c4ccccc4)c4ccccc4)C(C)=C1C3(C)C)[C@]1(OC(C)=O)CO[C@@H]1C[C@@H]2O [Compound 13aa] | 30 | – | –
3 | CC(=O)O[C@H]1C(=O)[C@@]2(C)[C@H]([C@H](OC(=O)/C=C/c3ccccc3)[C@]3(O)C[C@H](OC(=O)[C@H](O)[C@@H](NC(=O)c4ccccc4)c4ccccc4)C(C)=C1C3(C)C)[C@]1(OC(C)=O)CO[C@@H]1C[C@@H]2O [Compound 13b] | 10 | less active or about as active as taxol | –
4 | CC(=O)O[C@H]1C(=O)[C@@]2(C)[C@H]([C@H](OC(=O)c3ccc(Cl)cc3)[C@]3(O)C[C@H](OC(=O)[C@H](O)[C@@H](NC(=O)c4ccccc4)c4ccccc4)C(C)=C1C3(C)C)[C@]1(OC(C)=O)CO[C@@H]1C[C@@H]2O [Compound 13bb] | 150 | – | –
5 | CC(=O)O[C@H]1C(=O)[C@@]2(C)[C@H]([C@H](OC(=O)c3cccc([N+](=O)[O-])c3)[C@]3(O)C[C@H](OC(=O)[C@H](O)[C@@H](NC(=O)c4ccccc4)c4ccccc4)C(C)=C1C3(C)C)[C@]1(OC(C)=O)CO[C@@H]1C[C@@H]2O [Compound 13c] | 0.3 | much greater biological activity than taxol | –
6 | CSc1ccc(C(=O)O[C@H]2[C@@H]3[C@]4(OC(C)=O)CO[C@@H]4C[C@H](O)[C@@]3(C)C(=O)[C@H](OC(C)=O)C3=C(C)[C@@H](OC(=O)[C@H](O)[C@@H](NC(=O)c4ccccc4)c4ccccc4)C[C@]2(O)C3(C)C)cc1 [Compound 13cc] | 12 | – | –
7 | CC(=O)OC1C(=O)C2(C)C(O)CC3OCC3(OC(C)=O)C2C(OC(=O)c2cccc(Cl)c2)C2(O)CC(OC(=O)C(O)C(NC(=O)c3ccccc3)c3ccccc3)C(C)=C1C2(C)C (centres unmarked) [Compound 13d] | 0.1 | much greater biological activity than taxol | –
8 | CC(=O)O[C@H]1C(=O)[C@@]2(C)[C@H]([C@H](OC(=O)c3ccc([N+](=O)[O-])cc3)[C@]3(O)C[C@H](OC(=O)[C@H](O)[C@@H](NC(=O)c4ccccc4)c4ccccc4)C(C)=C1C3(C)C)[C@]1(OC(C)=O)CO[C@@H]1C[C@@H]2O [Compound 13dd] | 8.3 | – | –
9 | CC(=O)OC1C(=O)C2(C)C(O)CC3OCC3(OC(C)=O)C2C(OC(=O)c2cc([N+](=O)[O-])cc([N+](=O)[O-])c2)C2(O)CC(OC(=O)C(O)C(NC(=O)c3ccccc3)c3ccccc3)C(C)=C1C2(C)C (centres unmarked) [Compound 13e] | 2.0 | – | –
10 | CC(=O)O[C@H]1C(=O)[C@@]2(C)[C@H]([C@H](OC(=O)c3ccc(C(F)(F)F)cc3)[C@]3(O)C[C@H](OC(=O)[C@H](O)[C@@H](NC(=O)c4ccccc4)c4ccccc4)C(C)=C1C3(C)C)[C@]1(OC(C)=O)CO[C@@H]1C[C@@H]2O [Compound 13ee] | 30 | – | –
11 | CC(=O)O[C@H]1C(=O)[C@@]2(C)[C@H]([C@H](OC(=O)c3cccc(N=[N+]=[N-])c3)[C@]3(O)C[C@H](OC(=O)[C@H](O)[C@@H](NC(=O)c4ccccc4)c4ccccc4)C(C)=C1C3(C)C)[C@]1(OC(C)=O)CO[C@@H]1C[C@@H]2O [Compound 13f, 2-debenzoyl-2-(m-azidobenzoyl)taxol] | 0.002 | much greater biological activity than taxol | 500
12 | CC(=O)O[C@H]1C(=O)[C@@]2(C)[C@H]([C@H](OC(=O)c3ccc(C(C)=O)cc3)[C@]3(O)C[C@H](OC(=O)[C@H](O)[C@@H](NC(=O)c4ccccc4)c4ccccc4)C(C)=C1C3(C)C)[C@]1(OC(C)=O)CO[C@@H]1C[C@@H]2O [Compound 13ff] | 30 | – | –
13 | COc1cc(C(=O)O[C@H]2[C@@H]3[C@]4(OC(C)=O)CO[C@@H]4C[C@H](O)[C@@]3(C)C(=O)[C@H](OC(C)=O)C3=C(C)[C@@H](OC(=O)[C@H](O)[C@@H](NC(=O)c4ccccc4)c4ccccc4)C[C@]2(O)C3(C)C)cc(OC)c1OC [Compound 13g] | 0.5 | – | –
14 | CC(=O)O[C@H]1C(=O)[C@@]2(C)[C@H]([C@H](OC(=O)c3cccc(C#N)c3)[C@]3(O)C[C@H](OC(=O)[C@H](O)[C@@H](NC(=O)c4ccccc4)c4ccccc4)C(C)=C1C3(C)C)[C@]1(OC(C)=O)CO[C@@H]1C[C@@H]2O [Compound 13h] | 0.25 | – | –
15 | CC(=O)O[C@H]1C(=O)[C@@]2(C)[C@H]([C@H](OC(=O)c3cccc(C(F)(F)F)c3)[C@]3(O)C[C@H](OC(=O)[C@H](O)[C@@H](NC(=O)c4ccccc4)c4ccccc4)C(C)=C1C3(C)C)[C@]1(OC(C)=O)CO[C@@H]1C[C@@H]2O [Compound 13i] | 15 | – | –
16 | CC(=O)O[C@H]1C(=O)[C@@]2(C)[C@H]([C@H](OC(=O)c3cccc(F)c3)[C@]3(O)C[C@H](OC(=O)[C@H](O)[C@@H](NC(=O)c4ccccc4)c4ccccc4)C(C)=C1C3(C)C)[C@]1(OC(C)=O)CO[C@@H]1C[C@@H]2O [Compound 13j] | 0.35 | – | –
17 | CC(=O)OC1C(=O)C2(C)C(O)CC3OCC3(OC(C)=O)C2C(OC(=O)c2cccs2)C2(O)CC(OC(=O)C(O)C(NC(=O)c3ccccc3)c3ccccc3)C(C)=C1C2(C)C (centres unmarked) [Compound 13k] | 10 | – | –
18 | CC(=O)O[C@H]1C(=O)[C@@]2(C)[C@H]([C@H](OC(=O)c3ccc(Cl)c(Cl)c3)[C@]3(O)C[C@H](OC(=O)[C@H](O)[C@@H](NC(=O)c4ccccc4)c4ccccc4)C(C)=C1C3(C)C)[C@]1(OC(C)=O)CO[C@@H]1C[C@@H]2O [Compound 13m] | 0.003 | – | –
19 | CC(=O)O[C@H]1C(=O)[C@@]2(C)[C@H]([C@H](OC(=O)c3cccc(C)c3)[C@]3(O)C[C@H](OC(=O)[C@H](O)[C@@H](NC(=O)c4ccccc4)c4ccccc4)C(C)=C1C3(C)C)[C@]1(OC(C)=O)CO[C@@H]1C[C@@H]2O [Compound 13n] | 0.04 | – | –
20 | CC(=O)O[C@H]1C(=O)[C@@]2(C)[C@H]([C@H](OC(=O)c3ccccc3Cl)[C@]3(O)C[C@H](OC(=O)[C@H](O)[C@@H](NC(=O)c4ccccc4)c4ccccc4)C(C)=C1C3(C)C)[C@]1(OC(C)=O)CO[C@@H]1C[C@@H]2O [Compound 13o] | 0.011 | increased bioactivity as compared with taxol | –
21 | COc1cccc(C(=O)O[C@H]2[C@@H]3[C@]4(OC(C)=O)CO[C@@H]4C[C@H](O)[C@@]3(C)C(=O)[C@H](OC(C)=O)C3=C(C)[C@@H](OC(=O)[C@H](O)[C@@H](NC(=O)c4ccccc4)c4ccccc4)C[C@]2(O)C3(C)C)c1 [Compound 13p] | 0.0004 | – | –
22 | CC(=O)O[C@H]1C(=O)[C@@]2(C)[C@H]([C@H](OC(=O)c3cccc(Oc4ccccc4)c3)[C@]3(O)C[C@H](OC(=O)[C@H](O)[C@@H](NC(=O)c4ccccc4)c4ccccc4)C(C)=C1C3(C)C)[C@]1(OC(C)=O)CO[C@@H]1C[C@@H]2O [Compound 13r] | 4.3 | – | –
23 | CC(=O)O[C@H]1C(=O)[C@@]2(C)[C@H]([C@H](OC(=O)c3cccc(I)c3)[C@]3(O)C[C@H](OC(=O)[C@H](O)[C@@H](NC(=O)c4ccccc4)c4ccccc4)C(C)=C1C3(C)C)[C@]1(OC(C)=O)CO[C@@H]1C[C@@H]2O [Compound 13s] | 0.028 | – | –
